# In publication PMC5909127, “Optimization of a “bump-and-hole” approach to allele-selective BET bromodomain inhibition” (Chemical Science, 2018):
# Key:
# [1] = tested on: GFP-BRD4 L/V constructs with NF-κB-RE/luc2P reporter in HEK293T cells; assay: NF-κB luciferase assay; format: cell-based, human; details: 1 µM, inhibiting either individual BD of BRD4
# Method: To provide additional functional insights into the individual roles of BD1 vs. BD2 beyond chromatin binding, a luciferase assay was developed to monitor the expression of NF-κB target genes, inspired by work of Zou et al.[45] […] This luciferase induction was maintained with L/V mutations (but not L/A), consistent again with more WT-like functionality of L/V compared to L/A (Fig. 9A).
# 12 – NF-κB Luciferase Assay
# Luciferase experiments were performed in human HEK293T cells seeded in a 24-well plate at 100 000 cells in […]
# pBABE NF-κB-RE/luc2P reporter plasmid. Cells were transfected using Lipofectamine™ LTX (Invitrogen) with PLUS™ reagent, with each well receiving 0.5 µg of each plasmid, 2.5 µl LTX and 0.5 µl PLUS reagent. The next day cells were treated with compounds, giving a final concentration of 1 µM compound and 0.01% DMSO. 6 hours later cells were washed with PBS, lysed with passive lysis buffer (Promega) and stored at -20°C.
# Luciferase activity was measured suing the Promega luciferase assay. In a black 384-well plate 3µl of clarified lysate was mixed with 15µl luciferase assay reagent and after 15 minutes luminescence was measured in a Pherastar FS. […]
# NMR spectra were recorded on a Bruker 500 Ultrashield or a Bruker Ascend 400. […] High Resolution Mass Spectra (HRMS) were recorded on a Bruker micrOTOF. […]
# BRD4 BD1 WT [2] = biological target: T1, BRD4 BD1 WT (Homo sapiens, UniProt O60885); assay: ITC; format: binding
# BRD4 BD1 WT [3] = biological target: T1, BRD4 BD1 WT; assay: competitive AlphaLISA; format: binding
# BRD4 BD1 L/V [4] = biological target: T2, BRD4 BD1 L/V (Homo sapiens, UniProt O60885, L94V); assay: competitive AlphaLISA; format: binding
# BRD4 BD1 L/V [5] = biological target: T2, BRD4 BD1 L/V; assay: ITC; format: binding; details: for Kd: Kd BRD4 BD1 L/V
# in vitro = details: PAMPA, pH 7.4
# BRD2 BD2 WT [6] = biological target: T3, BRD2 BD2 WT (Homo sapiens, UniProt P25440); assay: ITC; format: binding
# BRD3 BD2 WT [7] = biological target: T4, BRD3 BD2 WT (Homo sapiens, UniProt Q15059); assay: competitive AlphaLISA; format: binding
# [8] = tested on: L/V somatic BET bromodomains; assay: ITC; details: L/V minus WT
# BRD3 BD1 WT [9] = biological target: T5, BRD3 BD1 WT (Homo sapiens, UniProt Q15059); assay: ITC; format: binding
# BRD3 BD1 L/V [10] = biological target: T6, BRD3 BD1 L/V (Homo sapiens, UniProt Q15059, L70V); assay: competitive AlphaLISA; format: binding
# [11] = biological target: WT BET bromodomains (BD1 and BD2 of BRD2, BRD3 and BRD4); assay: competitive AlphaLISA (Bio-JQ1 displacement); format: binding, human; details: mean and SD of all somatic bromodomains; active enantiomer concentration
# BRDT BD1 WT = BRDT BD1 WT (Homo sapiens, UniProt Q58F21); assay: competitive AlphaLISA; format: binding
# BRD3 BD1 WT [12] = biological target: T5, BRD3 BD1 WT; assay: competitive AlphaLISA; format: binding
# Plasma Half-life = details: BALB/c, mouse, pH 7.4
# BRD4 BD2 L/V [13] = biological target: T7, BRD4 BD2 L/V (Homo sapiens, UniProt O60885, L387V); assay: competitive AlphaLISA; format: binding
# BRD2 BD2 L/V [14] = biological target: T8, BRD2 BD2 L/V (Homo sapiens, UniProt P25440, L383V); assay: ITC; format: binding
# BRD2 BD2 WT [15] = biological target: T3, BRD2 BD2 WT; assay: competitive AlphaLISA; format: binding
# BRD2 BD1 WT [16] = biological target: T9, BRD2 BD1 WT (Homo sapiens, UniProt P25440); assay: competitive AlphaLISA; format: binding
# BRD3 BD2 WT [17] = biological target: T4, BRD3 BD2 WT; assay: ITC; format: binding
# BRD3 BD1 L/V [18] = biological target: T6, BRD3 BD1 L/V; assay: ITC; format: binding
# Intrinsic Clearance = details: mouse liver microsomes
# BRD4 BD2 WT [19] = biological target: T10, BRD4 BD2 WT (Homo sapiens, UniProt O60885); assay: competitive AlphaLISA; format: binding
# BRD2 BD1 L/V [20] = biological target: T11, BRD2 BD1 L/V (Homo sapiens, UniProt P25440, L110V); assay: ITC; format: binding
# BRD4 BD2 WT [21] = biological target: T10, BRD4 BD2 WT; assay: ITC; format: binding
# BRD3 BD2 L/V [22] = biological target: T12, BRD3 BD2 L/V (Homo sapiens, UniProt Q15059, L345V); assay: competitive AlphaLISA; format: binding
# BRDT BD1 L/V = BRDT BD1 L/V (Homo sapiens, UniProt Q58F21, L63V); assay: competitive AlphaLISA; format: binding
# BRD2 BD2 L/V [23] = biological target: T8, BRD2 BD2 L/V; assay: competitive AlphaLISA; format: binding
# BRD2 BD1 WT [24] = biological target: T9, BRD2 BD1 WT; assay: ITC; format: binding
# [25] = tested on: L/V BET bromodomains (BD1 and BD2 of BRD2, BRD3 and BRD4); assay: competitive AlphaLISA (Bio-JQ1 displacement); format: binding, human; details: L/V minus WT
# BRD3 BD2 L/V [26] = biological target: T12, BRD3 BD2 L/V; assay: ITC; format: binding
# BRD2 BD1 L/V [27] = biological target: T11, BRD2 BD1 L/V; assay: competitive AlphaLISA; format: binding
# [28] = biological target: WT somatic BET bromodomains; assay: ITC; details: mean and SD of all somatic bromodomains
# BRD4 BD2 L/V [29] = biological target: T7, BRD4 BD2 L/V; assay: ITC; format: binding
# T12 sequence (Q15059 306-416 L345V limits assumed): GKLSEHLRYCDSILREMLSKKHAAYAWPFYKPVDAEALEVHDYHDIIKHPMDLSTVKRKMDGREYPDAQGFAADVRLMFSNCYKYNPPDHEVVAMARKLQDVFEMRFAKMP
# T3 sequence (P25440 344-455): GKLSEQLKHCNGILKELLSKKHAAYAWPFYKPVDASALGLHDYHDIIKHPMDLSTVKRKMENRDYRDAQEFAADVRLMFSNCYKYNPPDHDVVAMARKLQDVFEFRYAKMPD
# T8 sequence (P25440 344-455 L383V): as the sequence (P25440 344-455) above, with L40V counted along it
# T5 sequence (Q15059 24-144): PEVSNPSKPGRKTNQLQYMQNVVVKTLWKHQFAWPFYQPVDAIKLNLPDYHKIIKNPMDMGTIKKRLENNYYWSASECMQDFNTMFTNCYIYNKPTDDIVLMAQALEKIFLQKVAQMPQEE
# T9 sequence (P25440 71-176): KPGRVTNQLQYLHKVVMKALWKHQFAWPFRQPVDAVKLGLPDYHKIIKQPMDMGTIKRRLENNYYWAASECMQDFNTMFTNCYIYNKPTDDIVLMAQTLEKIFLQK
# T11 sequence (P25440 71-176 L110V limits assumed): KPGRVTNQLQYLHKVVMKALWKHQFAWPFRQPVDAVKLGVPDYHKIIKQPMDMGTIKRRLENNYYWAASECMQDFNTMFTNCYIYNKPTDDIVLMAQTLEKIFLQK
# T4 sequence (Q15059 306-416): as the sequence (Q15059 306-416 L345V limits assumed) above, with V40L counted along it
# T6 sequence (Q15059 24-144 L70V limits assumed): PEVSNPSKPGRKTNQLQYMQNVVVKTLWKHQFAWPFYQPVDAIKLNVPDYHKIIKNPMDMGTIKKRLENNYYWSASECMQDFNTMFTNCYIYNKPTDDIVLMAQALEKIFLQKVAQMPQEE
compound,measurement,setting,value
"CC[C@@H](C(=O)OC)[C@@H]1N=C(c2ccc(Cl)cc2)c2ccc(OC)cc2-n2c(C)nnc21 (relative stereo) [(2R,3S)-8]",effect on NF-κB signalling,[1],strongly impacted on NF-κB signalling
same,Kd,BRD4 BD1 WT [2],> 60000 nM
same,IC50,"BRD4 BD1 WT [3]; pIC50 BRD4 BD1 WT, separated enantiomers test, total compound concentration",79400 nM
same,ΔpIC50 BRD4 BD1,"BRD4 BD1 L/V [4]; L/V minus WT, total compound concentration",1.8
same,IC50,"BRD4 BD1 L/V [4]; pIC50 BRD4 BD1 L/V, separated enantiomers test, total compound concentration",1260 nM
same,N BRD4 BD1 L/V,"BRD4 BD1 L/V [5]; ITC stoichiometry, total compound concentration",0.85 ±0.01
same,ΔH BRD4 BD1 L/V,"BRD4 BD1 L/V [5]; ITC, total compound concentration",-6.5 ± 0.1 kcal/mol
same,Kd,"BRD4 BD1 L/V [5]; ITC of separated enantiomers and racemates, total compound concentration",440 ± 50 nM
"C=CC[C@@H](C(=O)OC)[C@@H]1N=C(c2ccc(Cl)cc2)c2cc(OC)ccc2-n2c(C)nnc21 (racemic) [Compound 5, (+-)methyl (R)-2-((S)-6-(4-chlorophenyl)-8-methoxy-1-methyl-4H-benzo[f][1,2,4]triazolo[4,3-a][1,4]diazepin-4-yl)pent-4-enoate]",Papp,in vitro,12.7 ×10⁻⁶ cm/s
same,Kd,BRD2 BD2 WT [6],5800 nM
same,ΔH BRD2 BD2 WT,BRD2 BD2 WT [6]; ITC,-2.3 kcal/mol
same,N BRD2 BD2 WT,BRD2 BD2 WT [6]; ITC stoichiometry,0.75
same,IC50,BRD3 BD2 WT [7],10000 nM
same,ITC pKd ± SD Δ,[8],1.5 ± 0.5
same,Kd,BRD3 BD1 WT [9],1500 nM
same,ΔH BRD3 BD1 WT,BRD3 BD1 WT [9]; ITC,-2.3 kcal/mol
same,N BRD3 BD1 WT,BRD3 BD1 WT [9]; ITC stoichiometry,0.85
same,IC50,BRD3 BD1 L/V [10],126 nM
same,AlphaLISA pIC50 ± SD WT,[11],5.1 ± 0.1
same,IC50,BRDT BD1 WT,20000 nM
same,IC50,BRD3 BD1 WT [12],3980 nM
same,half-life at 50 µM,Plasma Half-life,> 3 h
same,IC50,BRD4 BD2 L/V [13],251 nM
same,Kd,BRD2 BD2 L/V [14],240 nM
same,ΔH BRD2 BD2 L/V,BRD2 BD2 L/V [14]; ITC,-5.9 kcal/mol
same,Kd,BRD4 BD1 WT [2],9700 nM
same,ΔH BRD4 BD1 WT,BRD4 BD1 WT [2]; ITC,-3.5 kcal/mol
same,N BRD4 BD1 WT,BRD4 BD1 WT [2]; ITC stoichiometry,1.10
same,IC50,BRD2 BD2 WT [15],10000 nM
same,IC50,BRD2 BD1 WT [16],10000 nM
same,Kd,BRD3 BD2 WT [17],23000 nM
same,ΔH BRD3 BD2 WT,BRD3 BD2 WT [17]; ITC,-3.7 kcal/mol
same,Kd,BRD3 BD1 L/V [18],270 nM
same,ΔH BRD3 BD1 L/V,BRD3 BD1 L/V [18]; ITC,-11.3 kcal/mol
same,CL int,Intrinsic Clearance,6.7 ml min^–1 g^–1
same,IC50,BRD4 BD1 WT [3]; AlphaLISA pIC50 Value BRD4 BD1 WT,7940 nM
same,IC50,BRD4 BD2 WT [19],10000 nM
same,Kd,BRD2 BD1 L/V [20],470 nM
same,ΔH BRD2 BD1 L/V,BRD2 BD1 L/V [20]; ITC,-10.3 kcal/mol
same,IC50,BRD4 BD1 L/V [4]; AlphaLISA pIC50 Value BRD4 BD1 L/V,316 nM
same,ΔH BRD4 BD2 WT,BRD4 BD2 WT [21]; ITC,-2.2 kcal/mol
same,N BRD4 BD2 WT,BRD4 BD2 WT [21]; ITC stoichiometry,0.98
same,ΔH BRD4 BD1 L/V,BRD4 BD1 L/V [5]; ITC,-7.4 kcal/mol
same,Kd,"BRD4 BD1 L/V [5]; ITC, 30°C",180 nM
same,IC50,BRD3 BD2 L/V [22],126 nM
same,IC50,BRDT BD1 L/V,2000 nM
same,IC50,BRD2 BD2 L/V [23],158 nM
same,Kd,BRD2 BD1 WT [24],8400 nM
same,ΔH BRD2 BD1 WT,BRD2 BD1 WT [24]; ITC,-4.0 kcal/mol
same,N BRD2 BD1 WT,BRD2 BD1 WT [24]; ITC stoichiometry,1.0
same,AlphaLISA pIC50 ± SD Δ,[25],1.5 ± 0.3
same,Kd,BRD3 BD2 L/V [26],310 nM
same,ΔH BRD3 BD2 L/V,BRD3 BD2 L/V [26]; ITC,-8.5 kcal/mol
same,IC50,BRD2 BD1 L/V [27],1000 nM
same,ITC pKd ± SD WT,[28],5.1 ± 0.4
same,Kd,BRD4 BD2 L/V [29],170 nM
same,ΔH BRD4 BD2 L/V,BRD4 BD2 L/V [29]; ITC,-6.4 kcal/mol
